Results taken from article PMC2911226, “Structural and Biochemical Characterization of the Human Cyclophilin Family of Peptidyl-Prolyl Isomerases” (PLoS Biology, 2010).

Experiments:
PPWD1 = biological target: T1, PPWD1 (Homo sapiens, UniProt Q96BP3); test: Thermal stabilization assay (StarGazer static light scattering); assay type: binding; conditions: protein approximately 20 µM, compound 50 µM; shift vs basal Tagg
T1 construct: His6 with thrombin cleavage site (N); made in house; host or cells: E. coli BL21 Gold DE3
T1 sequence (Q96BP3 490-645 limits assumed): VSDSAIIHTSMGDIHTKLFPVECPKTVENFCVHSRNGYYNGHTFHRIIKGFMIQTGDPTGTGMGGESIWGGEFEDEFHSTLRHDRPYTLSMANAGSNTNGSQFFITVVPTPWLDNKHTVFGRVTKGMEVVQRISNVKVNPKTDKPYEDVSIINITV
Excerpt: (§1) In order to elucidate the function of residues in the extended active site of the PPIase domain of the human cyclophilins, we probed the binding and catalytic function of these domains against either substrate or small-molecule inhibitors (see Figure 1 and Datapack S1 for graphical and tabular depictions of the active site). Three assays were utilized to explore these functions. […] This assay has been shown in several studies to be a reliable readout of small molecule binding for kinase and other enzyme families,[38]. […] Because of the inherent thermal stability characteristics of PPID and RanBP2, this technique was unable to distinguish between apo and cyclosporin-bound forms of those domains.
(§2) All protein samples used for static light scattering (StarGazer) trials were assessed for purity utilizing SDS-PAGE and verified for mass accuracy using mass spectrometry. Methods were generally as described as in [38]; protein at approximately 20 µM concentration was heated from room temperature to 80°C in the presence or absence of small molecules, including cyclosporins A, C, D, or H (LKT Labs, MN, USA). The […] were originally prepared in 100% DMSO at 50–100 mM concentration, then diluted to 50 µM for screening, thereby ensuring the final DMSO concentration was less than 5% during the experiment. […] Each compound was tested at least twice.

PPIF = biological target: T2, PPIF (Homo sapiens, UniProt P30405); test: as above; assay type: binding; conditions: protein approximately 20 µM, compound 50 µM; shift vs basal Tagg
T2 construct: His6 (thrombin cleavage site) (N); made in house; host or cells: E. coli BL21 Gold DE3
Excerpt: as §1, §2

NKTR = biological target: T3, NKTR (Homo sapiens, UniProt P30414); test: as above; assay type: binding; conditions: protein approximately 20 µM, compound 50 µM; shift vs basal Tagg
T3 construct: His6 with thrombin cleavage site (N); made in house; host or cells: E. coli BL21 Gold DE3
T3 sequence (P30414 10-175 limits assumed): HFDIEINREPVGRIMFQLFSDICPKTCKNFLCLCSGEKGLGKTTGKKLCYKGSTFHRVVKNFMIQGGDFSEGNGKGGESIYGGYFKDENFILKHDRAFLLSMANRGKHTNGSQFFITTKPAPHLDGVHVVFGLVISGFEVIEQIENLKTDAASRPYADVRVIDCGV
Excerpt: as §1, §2

PPIH = biological target: T4, PPIH (Homo sapiens, UniProt O43447); test: as above; assay type: binding; conditions: protein approximately 20 µM, compound 50 µM; shift vs basal Tagg
T4 construct: His6 (thrombin cleavage site) (N); made in house; host or cells: E. coli BL21 Gold DE3
Excerpt: as §1, §2

PPIC = biological target: T5, PPIC (Homo sapiens, UniProt P45877); test: as above; assay type: binding; conditions: protein approximately 20 µM, compound 50 µM; shift vs basal Tagg
T5 construct: His6 (thrombin cleavage site) (N); made in house; host or cells: E. coli BL21 Gold DE3
Excerpt: as §1, §2

PPIG [1] = biological target: T6, PPIG (Homo sapiens, UniProt Q13427); test: as above; assay type: binding; conditions: protein approximately 20 µM, compound 50 µM; shift vs basal Tagg
T6 construct: His6 (thrombin cleavage site) (N); made in house; host or cells: E. coli BL21 Gold DE3 (general method; the K125A/E126A crystallization mutant was grown in BL21 DE3 Codon Plus RIL)
Excerpt: as §1, §2

PPIE = biological target: T7, PPIE (Homo sapiens, UniProt Q9UNP9); test: as above; assay type: binding; conditions: protein approximately 20 µM, compound 50 µM; shift vs basal Tagg
T7 construct: His6 (thrombin cleavage site) (N); made in house; host or cells: E. coli BL21 Gold DE3
Excerpt: as §1, §2

PPIB = biological target: T8, PPIB (Homo sapiens, UniProt P23284); test: as above; assay type: binding; conditions: protein approximately 20 µM, compound 50 µM; shift vs basal Tagg
T8 construct: His6 (thrombin cleavage site) (N); made in house; host or cells: E. coli BL21 Gold DE3
Excerpt: as §1, §2

PPIA = biological target: T9, PPIA (Homo sapiens, UniProt P62937); test: as above; assay type: binding; conditions: protein approximately 20 µM, compound 50 µM; shift vs basal Tagg
T9 construct: His6 (thrombin cleavage site) (N); made in house; host or cells: E. coli BL21 Gold DE3
Excerpt: as §1, §2

PPIL1 = biological target: T10, PPIL1 (Homo sapiens, UniProt Q9Y3C6); test: as above; assay type: binding; conditions: protein approximately 20 µM, compound 50 µM; shift vs basal Tagg
T10 construct: His6 (thrombin cleavage site) (N); made in house; host or cells: E. coli BL21 Gold DE3
T10 sequence (Q9Y3C6 10-164 limits assumed): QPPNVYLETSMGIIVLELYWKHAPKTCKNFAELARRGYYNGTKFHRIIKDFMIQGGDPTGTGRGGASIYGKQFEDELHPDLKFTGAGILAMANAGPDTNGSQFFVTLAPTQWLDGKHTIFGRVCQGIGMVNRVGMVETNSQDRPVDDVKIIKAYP
Excerpt: as §1, §2

SDCCAG-10 = biological target: T11, SDCCAG-10 (Homo sapiens, UniProt Q6UX04); test: NMR-based tetrapeptide activity assay (1H/1H TOCSY); assay type: biochemical
T11 construct: His6 with thrombin cleavage site (N); made in house; host or cells: E. coli BL21 Gold DE3
T11 sequence (Q6UX04 11-166 limits assumed): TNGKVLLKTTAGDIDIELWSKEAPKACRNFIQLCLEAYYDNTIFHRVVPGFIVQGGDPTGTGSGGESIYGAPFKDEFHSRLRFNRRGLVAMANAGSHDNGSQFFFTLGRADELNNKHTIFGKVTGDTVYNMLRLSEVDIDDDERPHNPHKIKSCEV
Excerpt: (§3) A two-dimensional NMR experiment (1H/1H TOCSY) described previously,[40], the only in vitro protease-free method available to probe for both substrate binding and catalytic activity of cyclophilins, was used to assess the commercially available tetrapeptides of sequence AAPF, AFPF, and AGPF [34]. […] A number of articles have documented the drawbacks of the protease-coupled assay,[42]–[44], an obvious example being that the addition of protease to the reaction mixture in the chymotrypsin-coupled assay requires additional testing to ensure that the enzymes and substrates being screened are not proteolytic targets. […] We detected binding and turnover for at least one of the tetrapeptide substrates tested for PPIA, PPIB, PPIC, PPID, PPIE, PPIF, PPIG, PPIH, PPIL1, PPWD1, and NKTR (Table 1; see Figure S1 for representative data showing binding and activity). This correlated well with previously determined activities,[20],[21],[28],[30],[45],[46], and established activity measurements for PPIF, PPIG, and NKTR.
(§4) Most protein samples aimed at assessing binding and/or catalysis of tetrapeptide substrates were diluted to 500 µL with 10% D2O and placed into a Shigemi microcell (Allison Park, PA, USA). Typical samples contained 0.075 mM protein and 2 mM of suc-AAPF-pNA, suc-AFPF-pNA, or suc-AGPF-pNA (Bachem), along with 100 mM phosphate buffer pH 7 and 100 mM NaCl. Spectra were collected at 25°C on a Varian 600 or 900 MHz spectrometer (Palo Alto, CA, USA). Spectra were acquired using standard Varian BioPack sequences, processed using NMRpipe software and visualized using CCPN software. For samples used to assess binding of PPIA to peptides DEGPF, DFGPF, DYGPF, YGGPF, or VRGPF, samples were as above except protein concentration was 0.3 mM and spectra were collected at 10°C.

PPID = biological target: T12, PPID (Homo sapiens, UniProt Q08752); test: as above; assay type: biochemical; conditions: collapse of substrate cis/trans peaks; at least one of suc-AAPF-pNA, suc-AFPF-pNA, suc-AGPF-pNA; 25°C
T12 construct: His6 (thrombin cleavage site) (N); made in house; host or cells: E. coli BL21 Gold DE3
Excerpt: as §3, §4

PPIG [2] = biological target: T6, PPIG; test: as above; assay type: biochemical; conditions: collapse of substrate cis/trans peaks; at least one of suc-AAPF-pNA, suc-AFPF-pNA, suc-AGPF-pNA; 25°C
Excerpt: as §3, §4

PPIL2 = biological target: T13, PPIL2 (Homo sapiens, UniProt Q13356); test: as above; assay type: biochemical
T13 construct: His6 with thrombin cleavage site (N); made in house; host or cells: E. coli BL21 Gold DE3
T13 sequence (Q13356 278-433 limits assumed): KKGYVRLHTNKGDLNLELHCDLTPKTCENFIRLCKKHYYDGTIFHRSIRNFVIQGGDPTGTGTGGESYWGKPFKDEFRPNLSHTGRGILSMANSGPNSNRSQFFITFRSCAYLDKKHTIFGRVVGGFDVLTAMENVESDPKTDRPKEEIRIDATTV
Excerpt: as §3, §4

[3] = collapse of substrate cis/trans peaks, suc-AAPF-pNA, suc-AFPF-pNA, suc-AGPF-pNA, 25°C

T6 sequence (Q13427 11-176 limits assumed): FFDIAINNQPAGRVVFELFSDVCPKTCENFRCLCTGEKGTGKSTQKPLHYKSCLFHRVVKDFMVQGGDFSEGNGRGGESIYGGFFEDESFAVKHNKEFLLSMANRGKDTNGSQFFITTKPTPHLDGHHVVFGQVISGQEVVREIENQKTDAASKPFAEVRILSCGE
T4 sequence (O43447 14-176 limits assumed): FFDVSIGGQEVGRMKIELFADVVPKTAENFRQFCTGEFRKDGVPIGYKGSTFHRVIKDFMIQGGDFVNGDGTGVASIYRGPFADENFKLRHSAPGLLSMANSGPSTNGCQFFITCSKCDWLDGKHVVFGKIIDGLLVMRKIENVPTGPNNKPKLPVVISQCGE
T8 sequence (P23284 47-204 limits assumed): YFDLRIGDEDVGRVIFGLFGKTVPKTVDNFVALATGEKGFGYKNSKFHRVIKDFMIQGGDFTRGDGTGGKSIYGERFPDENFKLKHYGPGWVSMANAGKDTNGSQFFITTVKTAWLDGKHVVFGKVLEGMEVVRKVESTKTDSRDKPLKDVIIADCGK
T7 sequence (Q9UNP9 143-299 limits assumed): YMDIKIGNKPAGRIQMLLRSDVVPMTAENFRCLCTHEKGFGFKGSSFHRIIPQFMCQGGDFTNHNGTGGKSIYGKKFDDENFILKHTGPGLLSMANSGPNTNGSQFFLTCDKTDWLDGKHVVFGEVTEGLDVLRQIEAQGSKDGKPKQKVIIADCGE
T12 sequence (Q08752 19-183 limits assumed): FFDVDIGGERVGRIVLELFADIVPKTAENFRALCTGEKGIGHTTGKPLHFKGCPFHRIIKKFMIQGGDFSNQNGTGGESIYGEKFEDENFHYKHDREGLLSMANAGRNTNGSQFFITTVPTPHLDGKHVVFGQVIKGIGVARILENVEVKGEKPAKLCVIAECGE
T2 sequence (P30405 49-205 limits assumed): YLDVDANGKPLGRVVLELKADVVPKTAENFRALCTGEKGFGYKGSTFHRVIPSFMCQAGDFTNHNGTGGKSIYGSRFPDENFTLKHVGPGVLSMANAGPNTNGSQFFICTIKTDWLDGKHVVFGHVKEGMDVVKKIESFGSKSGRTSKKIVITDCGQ
T9 sequence (P62937 7-163 limits assumed): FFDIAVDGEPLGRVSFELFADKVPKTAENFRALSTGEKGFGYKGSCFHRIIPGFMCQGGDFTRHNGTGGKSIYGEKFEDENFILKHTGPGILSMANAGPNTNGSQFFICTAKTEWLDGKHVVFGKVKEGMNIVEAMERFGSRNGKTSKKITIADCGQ
T5 sequence (P45877 41-198 limits assumed): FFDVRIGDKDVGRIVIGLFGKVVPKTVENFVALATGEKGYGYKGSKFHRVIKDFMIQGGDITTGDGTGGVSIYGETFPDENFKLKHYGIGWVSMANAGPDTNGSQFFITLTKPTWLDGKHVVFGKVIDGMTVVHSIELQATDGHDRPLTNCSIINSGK

Molecule	Thermal Stability ΔTagg, CsC (PPWD1)	Thermal Stability ΔTagg, CsC (PPIF)	Thermal Stability ΔTagg, CsC (NKTR)	Thermal Stability ΔTagg, CsC (PPIH)	Thermal Stability ΔTagg, CsC (PPIC)	Thermal Stability ΔTagg, CsC (PPIG [1])	Thermal Stability ΔTagg, CsC (PPIE)	Thermal Stability ΔTagg, CsC (PPIB)	Thermal Stability ΔTagg, CsC (PPIA)	Thermal Stability ΔTagg, CsC (PPIL1)	Binding of substrate (peak centers shift without coalescence) (SDCCAG-10; Figure S1A)	Tetrapeptide Activity (SDCCAG-10; [3])	Tetrapeptide Activity (PPID)	Tetrapeptide Activity (PPIG [2])	Binding of substrate (peak centers shift without coalescence) (PPIL2; Figure S1A)	Tetrapeptide Activity (PPIL2; [3])
C/C=C/C[C@@H](C)[C@@H](O)[C@H]1C(=O)N[C@@H]([C@@H](C)O)C(=O)N(C)CC(=O)N(C)[C@@H](CC(C)C)C(=O)N[C@@H](C(C)C)C(=O)N(C)[C@@H](CC(C)C)C(=O)N[C@@H](C)C(=O)N[C@H](C)C(=O)N(C)[C@@H](CC(C)C)C(=O)N(C)[C@@H](CC(C)C)C(=O)N(C)[C@@H](C(C)C)C(=O)N1C [CsC, cyclosporin C]	5.2 °C	10.7 °C	3.0 °C	7.3 °C	7.0 °C	2 °C	6.8 °C	3.4 °C	1.9 °C	1.7 °C	–	–	–	–	–	–
suc-AGPF-pNA	–	–	–	–	–	–	–	–	–	–	binding, but not catalysis	not active	active isomerases	active isomerases	binding, but not catalysis	not active
